The record followed here is patent publication US20220079935A1, “COMPOUNDS AND TREATMENTS THAT ENHANCE ENTERIC NERVOUS SYSTEM FUNCTION” (The Johns Hopkins University, priority 2019, published 2022).

Test [1] concerns rat enteric glia cell line EGC/PK060399 (ATCC CRL-2690). Kind of test: BDNF release from cultured enteric glia cell line (BDNF ELISA). The class given is cell-based. Here is the method: FIG. 16 is a time response curve showing the BDNF secretion by enteric glial cells stimulated with 10 μM J11. The enteric glial cells (EGC/PK060399egfr, ATCC® CRL-2690™) were treated with 10 μM J11, and the conditional medium were harvested at 2, 6, 24 and 48 hours after treatment. The BDNF secretion was quantified using BDNF ELISA kit following the manufacturer's protocol.
(§1) The inventors next embarked on a strategy to identify novel therapeutic agents for NEC based upon their ability to enhance glial function and thus reduce TLR4 signaling and NEC. To do so, several libraries of FDA approved compounds were screened against the rat enteric glia cell line EGC/PK060399 (ATCC® CRL-2690™) for their ability to induce BDNF release, then the hits were validated by their ability to reduce NEC in mice. The lead hit, shown in FIG. 6A, is a C13H11NO5 compound with MW 261.23Da, herein named “J11”.
A dose-response curve was established for oxolinic acid (J11) in inducing BDNF release in the enteric glia cell line EGC/PK060399, and will be used evaluate a safety profile based upon its mean effective dose in mice. […] The BDNF secretion was quantified using BDNF ELISA kit following the manufacturer's protocol. The amount of BDNF was time dependent with the greatest secretion after 48 hours of exposure.
(In an ELISA, binding on a coated surface is turned into a signal by an enzyme label.)

For test [2], the system named is intestine of wild type mice. Kind of test: BDNF release in the intestine after oral administration. In kind it is in vivo. The following applies: oral administration 20 mg/kg, wild type mice (FIG. 6C).
The test system of test [3] is enteric glial cells (EGC/PK060399egfr, ATCC CRL-2690). Kind of test: BDNF mRNA expression by enteric glial cells (qPCR). The class given is cell-based, rat. The conditions noted are these: 10 μM and 20 μM J11. Here is the method: FIG. 17 depicts a time response curve showing the BDNF mRNA expression by enteric glial cells stimulated with 10 μM and 20 μM J11. The enteric glial cells (EGC/PK060399egfr, ATCC® CRL-2690™) were treated with 10 μM and 20 μM J11, and the enteric glial cells were harvested at 2, 6, 24 and 48 hours after treatment.
The enteric glial cells (EGC/PK060399egfr, ATCC® CRL-2690™) were treated with 10 μM and 20 μM J11, and the enteric glial cells were harvested at 2, 6, 24 and 48 hours after treatment. Total RNA was isolated using the RNeasy mini kit following the manufacturer's protocol. Complementary DNA was synthesized from 0.5 μg RNA using M-MLV reverse transcriptase. The qPCR analysis was performed with the Bio-Rad CFX96 Real-Time System (Biorad, Hercules, Calif.). The relative BDNF mRNA expression was normalized against the expression of housekeeping gene RPLO.
In general terms: In qPCR the cycle at which signal appears reflects the starting amount.

The test system of test [4] is NEC in mice. Kind of test: Experimental NEC model in mice. In kind it is in vivo. Here is the method: In the inventors' NEC model, 7d old mice are gavaged with a combination of Similac Advance infant formula (Abbott Nutrition):Esbilac canine milk replacer (PetAb) in a 2:1 ratio at 50 μl/g every 3 hours, and subjected to 10 minutes of hypoxia (5% O2 95% N2 in a Billups-Rothenberg chamber) twice daily for four days, and then orally gavaged dysbiotic bacteria (1×10^5 cfu/ml) obtained from the stool of a patient with severe NEC (see our recent JCI paper for more model details^7). This protocol induces patchy intestinal necrosis and mucosal disruption which mimics human NEC in wild-type mice, but not in either TLR4^ΔIEC or TLR4^−/− littermates.

Test [5] has as its system TLR4 signaling. Kind of test: LPS-mediated TLR4 signaling in the intestine of mice. The class given is in vivo. The procedure: (§2) FIGS. 5A-5K. BDNF restrains TLR4 signaling in the intestinal epithelium. 5A) enterocytes. 5B) In wild-type mice, BDNF (1 μg/kg) LPS (5 mg/kg) injection for 6 hrs. 5C) qRT-PCR of human ileum freshly harvested from patient with NEC treated with LPS (25 μg/kg) for 6 hr. 5D-H) H&E images. 5I) BDNF ELISA. 5J-K) TNFα and NEC severity. *p<0.05 by ANOVA; 5-10 mice per experiment.
(§3) Fifth, wild-type mice with NEC show reduced levels of BDNF in the intestinal mucosa (FIG. 5H-I), consistent with the reduction in glia.
as §1
(§4) The inventors sought to determine how BDNF inhibits TLR4 and thus attenuates NEC. BDNF is known to signal principally via its receptor, namely tropomyosin-related kinase B (TrkB), which the inventors now show to be present in the intestinal epithelium (FIG. 7). The inventors have now knocked down TrkB in IEC-6 enterocytes (FIG. 7A) using lentiviral delivery of TrkB shRNA.

Test [6] deals with premature human intestine obtained after surgery for NEC. Kind of test: Human NEC intestine treated ex vivo with LPS. The class given is cell-based. The procedure:
as §2, §3, §1

Test [7] deals with T1, TrkB (Mus musculus, UniProt P15209, F616A).
T1 construct: from tissue; host or cells: NTrk2 tm1Ddg/J knock-in mutant mice (in vivo; intestine)
Kind of test: TrkB inhibition in NTrk2 tmlDdg/J mutant mice. The class given is in vivo. The following applies: 1NMPP1 25 μM injected in NTrk2 tmlDdg/J mutant mice; preliminary.

Test [8] concerns TLR4 signaling. Kind of test: LPS-induced cytokine expression in cultured enterocytes or enteroids. In kind it is cell-based, mice. The conditions noted are these: BDNF 1 μg/ml.
Description: as §3, §4

“Also recorded” adds a separate entry of the source.

T1 sequence (P15209 32-821 F616A): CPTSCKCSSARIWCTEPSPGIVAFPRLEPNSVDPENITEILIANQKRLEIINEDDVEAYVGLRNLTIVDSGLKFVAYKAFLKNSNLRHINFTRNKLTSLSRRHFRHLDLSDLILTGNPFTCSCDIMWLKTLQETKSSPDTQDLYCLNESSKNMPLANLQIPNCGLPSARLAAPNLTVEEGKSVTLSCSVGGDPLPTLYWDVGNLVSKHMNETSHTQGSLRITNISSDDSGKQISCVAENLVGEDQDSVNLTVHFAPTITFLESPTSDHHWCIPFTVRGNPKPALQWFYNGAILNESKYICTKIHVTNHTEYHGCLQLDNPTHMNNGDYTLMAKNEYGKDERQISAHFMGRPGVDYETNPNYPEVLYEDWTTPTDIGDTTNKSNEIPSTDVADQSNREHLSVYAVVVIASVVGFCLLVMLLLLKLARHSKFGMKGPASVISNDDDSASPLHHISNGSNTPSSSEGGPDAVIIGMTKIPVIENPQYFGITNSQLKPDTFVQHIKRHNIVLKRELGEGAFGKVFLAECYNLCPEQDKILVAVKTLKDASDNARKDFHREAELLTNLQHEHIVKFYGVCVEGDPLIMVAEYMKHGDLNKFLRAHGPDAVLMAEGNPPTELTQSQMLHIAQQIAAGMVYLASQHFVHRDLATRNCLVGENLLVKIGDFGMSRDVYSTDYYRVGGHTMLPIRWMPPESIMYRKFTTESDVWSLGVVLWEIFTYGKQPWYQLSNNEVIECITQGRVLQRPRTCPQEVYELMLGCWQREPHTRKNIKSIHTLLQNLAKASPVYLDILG

In the case of `CCn1cc(C(=O)O)c(=O)c2cc3c(cc21)OCO3` [J11, oxolinic acid], the “time of greatest BDNF secretion” value in test [1] (10 μM J11, conditional medium harvested at 2, 6, 24 and 48 hours, BDNF ELISA (FIG. 16)) came to 48 h. Besides, in test [1] (cultured enteric glia (FIG. 6B)), the “BDNF release from enteric glia” value is given as “induced BDNF release”. In test [2], the “BDNF release in the intestine” value is recorded as “induced BDNF release”. Moreover, the “time of maximal BDNF mRNA expression” value in test [3] (harvested at 2, 6, 24 and 48 hours) is 24 h. In addition, the “BDNF mRNA expression” value in test [3] (normalized to RPLO (FIG. 17)) is reported as “stimulated”. Further, the NEC severity entry in test [4] (administered orally 20 mg/kg/day to 7d old mice, 20 mg/kg/day) is “significantly reduced NEC severity; also recorded: prevents NEC in mice”. The “LPS-mediated TLR4 signaling in the intestine” value in test [5] (LPS 5 mg/kg, wild type mice (FIG. 6D)) is reported as “inhibited LPS (5 mg/kg)-mediated TLR4 signaling”. Also, in test [6] (J11 10 μM, LPS 25 μg/ml, ex vivo), the “TLR4 signaling / inflammation in human NEC intestine” value was “reduced TLR4 signaling; also recorded: reduces TLR4 signaling in human tissue; also recorded: reduces inflammation in human NEC tissue ex vivo”. Further, the “BDNF release in human NEC intestine” value in test [6] (J11 10 μM, ex vivo) is listed as “significantly induced BDNF release”.

For the molecule `CC(C)(C)n1nc(Cc2cccc3ccccc23)c2c(N)ncnc21` [1NMPP1], the TrkB inhibition result in test [7] is “preliminarily achieved TrkB inhibition”.

B1: BDNF: brain derived neurotrophic factor, enteric glia-derived peptide signalling through TrkB (protein, UniProt P23560 19-247, looked up)
Neurotrophic factor BDNF …: APMKEANIRGQGGLAYPGVRTHGTLESVNGPKAGSRGLTSLADTFEHVIEELLDEDQKVRPNEENNKDADLYTSRVMLSSQVPLEPPLLFLLEEYKNYLDAANMSMRVRRHSDPARRGELSVCDSISEWVTAADKKTAVDMSGGTVTVLEKVPVSKGQLKQYFYETKCNPMGYTKEGCRGIDKRHWNSQCRTTQSYVRALTMDSKKRIGWRFIRIDTSCVCTLTIKRGR
Regarding B1, in test [4] (TrkB-lacking intestinal epithelium, BDNF administration), the “NEC in mice lacking TrkB in the intestinal epithelium” value is given as “not protected by BDNF administration”. In addition, the “NEC severity in the glial-KO mouse model” value in test [4] (glial-KO mice, BDNF 1 μg/kg (FIGS. 5H-K)) is recorded as “significantly reversed the severe NEC; also recorded: reversed by the administration of BDNF”. Moreover, the NEC development entry in test [4] (oral BDNF 1 μg/kg on each day of the model, histology and inflammatory cytokines) was “significantly protected against NEC development”. For the same molecule, the “TLR4-mediated expression of pro-inflammatory cytokines in the intestinal mucosa” value in test [5] (BDNF 1 μg/kg injection, wild type mice, 6h after LPS injection (FIG. 5B)) is “significantly reduced TLR4-mediated expression of the pro-inflammatory cytokines”. For the same molecule, in test [5] (newborn mice, TrkB shRNA by oral gavage, BDNF 1 μg/kg (FIG. 7B)), the “LPS-mediated TNF induction in mice deficient in TrkB” value is listed as “no protection of LPS-mediated TNF induction by BDNF”. Moreover, the “intestinal TNFα in glia KO mouse” value in test [5] (qRT-PCR, glia KO mouse (FIG. 3B)) is recorded as “reversed by BDNF”. Further, the “protection from LPS in ileum from NEC patients” value in test [6] (ileum from NEC patients treated with BDNF (FIG. 5C)) was “protection was seen”. Moreover, in test [8] (LPS 50 μg/ml, cultured enterocytes or enteroids from wild-type mice (FIG. 5A)), the TLR4-induced cytokine expression result is listed as “reduced TLR4 signaling”. Further, the “LPS induced IL-6 expression after TrkB knockdown” value in test [8] (IEC-6 cells with TrkB shRNA, LPS 50 μg/ml (FIG. 7A)) is listed as “knockdown of TrkB prevented BDNF (1 μg/ml)-mediated protection; also recorded: prevents BDNF protection of LPS TLR4-induced cytokine expression”.
